Values quoted from earlier work, collected in publication PMC8549773 (Chemical Science, 2021).

Tested on: GCase
Conditions: administered to rats

SMILES: OC[C@H]1O[C@@H](F)[C@H](F)[C@@H](O)[C@@H]1O [2FGlcF, 2-deoxy-2-fluoro-β-D-glucosyl fluoride]
- GCase inactivation in organs: inactivates GCase in all organs, including the brain
